# Assay results published in patent publication US10660867B2, “Beta-hydroxyketones as topical active ingredients for the prevention or treatment of photodermatoses” (Merck Patent GmbH, priority 2015, dated 2020).
# Tests used:
# [1] = test system: transcription factor NF-κB; assay: inhibition of activation of the transcription factor NF-κB
# Source text: It is furthermore thought that the compounds of the formula (I), as described above or preferably described below, have an inflammation-inhibiting action. This property also supports the therapeutic and non-therapeutic treatment of photodermatosis. […] 1998, 95(6):729-31.
# [2] = test system: test subjects with known PLE syndrome; assay: in vivo comparative study, skin reactions on UVA irradiation of treated skin; set-up: key to skin reaction on UVA irradiation, treated skin: 0 denotes no reaction; ± denotes weak reaction; + denotes clear reaction; ++ denotes strong reaction; +++ denotes very strong reaction; settings: for skin reaction on UVA irradiation, treated skin: 2.0% by wt. in O/W emulsion, 2 mg/cm^2 daily
# Procedure: In the in vivo study described below, the following O/W emulsion is used:
# A comparative study with positive control is carried out on 6 test subjects with known PLE syndrome. The study was carried out in Germany in April over a period of 5 days. The positive control was untreated, irradiated skin. The irradiation was carried out with 100% UVA light in a sub-erythemal dose, which was determined individually. The preparation was applied daily to half of the décolletage (2 mg/cm^2).
# The measurements were carried out twice daily, 10 min. after application of the preparation and immediately after irradiation.
# In the case of all test subjects, skin manifestations which have the presentation of polymorphic light eruption appeared on untreated skin. In case of 4 test subjects, no polymorphic light eruption was observed on treated skin. Only in the case of 2 test subjects was a weak reaction observed.
# [3] = photoconversion of compound A into the UVA filter avobenzone on irradiation; format: physicochemical
# Source text: As representative of the compounds of the formula (I), the efficacy of 3-(4-tert-butylphenyl)-3-hydroxy-1-(4-methoxyphenyl)propan-1-one in vivo is confirmed in the experimental part, where the proportion of UVA filter formed by decomposition of 3-(4-tert-butylphenyl)-3-hydroxy-1-(4-methoxy-phenyl)propan-1-one on exposure to UV light under the selected conditions of the study is only 0.1% by weight.
# Under the conditions of the in vivo study, conversion of compound A into the UVA filter avobenzone in an amount which could exert an influence on the skin appearances of the test subjects can be excluded.
# This can be stated because if a 2% solution of compound A in Cosmacol® ELI (C12-13 alkyl lactate) is irradiated with UVA/UVB light (20/1) in a dose of 5 MED (corresponding to 250 kJ/m^2), 0.1% of avobenzone is formed by conversion.
# Under the conditions of the in vivo experiment, a UVA dose of 20 J/cm^2 (corresponding to 200 kJ/m^2) is irradiated, i.e. even less than 0.1% of avobenzone will form by conversion under these conditions.
# UV absorption spectrum = format: physicochemical
# Source text: The absorption behaviour for the compound 3-(4-tert-butylphenyl)-3-hydroxy-1-(4-methoxy-phenyl)propan-1-one is depicted in FIG. 1 as representative.
# [4] = of 6 test subjects with known PLE syndrome, 5 days, UVA irradiation
smiles,measurement,setting,value
"COc1ccc(C(=O)CC(O)c2ccc(C(C)(C)C)cc2)cc1 (stereo not shown) [Compound A, 3-(4-tert-butylphenyl)-3-hydroxy-1-(4-methoxyphenyl)-propan-1-one]",activation of the transcription factor NF-κB,[1],inhibits activation
same,effect on manifestations of polymorphic light eruption on irradiation,"[2]; 6 test subjects, treated vs untreated irradiated skin",suppresses or significantly reduces the manifestations of polymorphic light eruption
same,test subjects with no polymorphic light eruption observed on treated skin,[2]; [4],4 test subjects
same,test subjects with weak reaction on treated skin,[2]; [4],2 test subjects
same,"skin reaction on UVA irradiation, treated skin","[2]; test subject 1, day 1, after irradiation",0
same,"skin reaction on UVA irradiation, treated skin","[2]; test subject 1, day 1, before irradiation",0
same,"skin reaction on UVA irradiation, treated skin","[2]; test subject 1, day 2, after irradiation",0
same,"skin reaction on UVA irradiation, treated skin","[2]; test subject 1, day 2, before irradiation",0
same,"skin reaction on UVA irradiation, treated skin","[2]; test subject 1, day 3, after irradiation",0
same,"skin reaction on UVA irradiation, treated skin","[2]; test subject 1, day 3, before irradiation",0
same,"skin reaction on UVA irradiation, treated skin","[2]; test subject 1, day 4, after irradiation",±
same,"skin reaction on UVA irradiation, treated skin","[2]; test subject 1, day 4, before irradiation",±
same,"skin reaction on UVA irradiation, treated skin","[2]; test subject 1, day 5, after irradiation",±
same,"skin reaction on UVA irradiation, treated skin","[2]; test subject 1, day 5, before irradiation",±
same,"skin reaction on UVA irradiation, treated skin","[2]; test subject 2, day 1, after irradiation",0
same,"skin reaction on UVA irradiation, treated skin","[2]; test subject 2, day 1, before irradiation",0
same,"skin reaction on UVA irradiation, treated skin","[2]; test subject 2, day 2, after irradiation",0
same,"skin reaction on UVA irradiation, treated skin","[2]; test subject 2, day 2, before irradiation",0
same,"skin reaction on UVA irradiation, treated skin","[2]; test subject 2, day 3, after irradiation",0
same,"skin reaction on UVA irradiation, treated skin","[2]; test subject 2, day 3, before irradiation",0
same,"skin reaction on UVA irradiation, treated skin","[2]; test subject 2, day 4, after irradiation",0
same,"skin reaction on UVA irradiation, treated skin","[2]; test subject 2, day 4, before irradiation",0
same,"skin reaction on UVA irradiation, treated skin","[2]; test subject 2, day 5, after irradiation",0
same,"skin reaction on UVA irradiation, treated skin","[2]; test subject 2, day 5, before irradiation",0
same,"skin reaction on UVA irradiation, treated skin","[2]; test subject 3, day 1, after irradiation",0
same,"skin reaction on UVA irradiation, treated skin","[2]; test subject 3, day 1, before irradiation",0
same,"skin reaction on UVA irradiation, treated skin","[2]; test subject 3, day 2, after irradiation",0
same,"skin reaction on UVA irradiation, treated skin","[2]; test subject 3, day 2, before irradiation",0
same,"skin reaction on UVA irradiation, treated skin","[2]; test subject 3, day 3, after irradiation",0
same,"skin reaction on UVA irradiation, treated skin","[2]; test subject 3, day 3, before irradiation",0
same,"skin reaction on UVA irradiation, treated skin","[2]; test subject 3, day 4, after irradiation",0
same,"skin reaction on UVA irradiation, treated skin","[2]; test subject 3, day 4, before irradiation",0
same,"skin reaction on UVA irradiation, treated skin","[2]; test subject 3, day 5, after irradiation",0
same,"skin reaction on UVA irradiation, treated skin","[2]; test subject 3, day 5, before irradiation",0
same,"skin reaction on UVA irradiation, treated skin","[2]; test subject 4, day 1, after irradiation",0
same,"skin reaction on UVA irradiation, treated skin","[2]; test subject 4, day 1, before irradiation",0
same,"skin reaction on UVA irradiation, treated skin","[2]; test subject 4, day 2, after irradiation",0
same,"skin reaction on UVA irradiation, treated skin","[2]; test subject 4, day 2, before irradiation",0
same,"skin reaction on UVA irradiation, treated skin","[2]; test subject 4, day 3, after irradiation",0
same,"skin reaction on UVA irradiation, treated skin","[2]; test subject 4, day 3, before irradiation",0
same,"skin reaction on UVA irradiation, treated skin","[2]; test subject 4, day 4, after irradiation",0
same,"skin reaction on UVA irradiation, treated skin","[2]; test subject 4, day 4, before irradiation",0
same,"skin reaction on UVA irradiation, treated skin","[2]; test subject 4, day 5, after irradiation",0
same,"skin reaction on UVA irradiation, treated skin","[2]; test subject 4, day 5, before irradiation",0
same,"skin reaction on UVA irradiation, treated skin","[2]; test subject 5, day 1, after irradiation",0
same,"skin reaction on UVA irradiation, treated skin","[2]; test subject 5, day 1, before irradiation",0
same,"skin reaction on UVA irradiation, treated skin","[2]; test subject 5, day 2, after irradiation",0
same,"skin reaction on UVA irradiation, treated skin","[2]; test subject 5, day 2, before irradiation",0
same,"skin reaction on UVA irradiation, treated skin","[2]; test subject 5, day 3, after irradiation",0
same,"skin reaction on UVA irradiation, treated skin","[2]; test subject 5, day 3, before irradiation",0
same,"skin reaction on UVA irradiation, treated skin","[2]; test subject 5, day 4, after irradiation",0
same,"skin reaction on UVA irradiation, treated skin","[2]; test subject 5, day 4, before irradiation",0
same,"skin reaction on UVA irradiation, treated skin","[2]; test subject 5, day 5, after irradiation",0
same,"skin reaction on UVA irradiation, treated skin","[2]; test subject 5, day 5, before irradiation",0
same,"skin reaction on UVA irradiation, treated skin","[2]; test subject 6, day 1, after irradiation",0
same,"skin reaction on UVA irradiation, treated skin","[2]; test subject 6, day 1, before irradiation",0
same,"skin reaction on UVA irradiation, treated skin","[2]; test subject 6, day 2, after irradiation",0
same,"skin reaction on UVA irradiation, treated skin","[2]; test subject 6, day 2, before irradiation",0
same,"skin reaction on UVA irradiation, treated skin","[2]; test subject 6, day 3, after irradiation",±
same,"skin reaction on UVA irradiation, treated skin","[2]; test subject 6, day 3, before irradiation",±
same,"skin reaction on UVA irradiation, treated skin","[2]; test subject 6, day 4, after irradiation",±
same,"skin reaction on UVA irradiation, treated skin","[2]; test subject 6, day 4, before irradiation",±
same,"skin reaction on UVA irradiation, treated skin","[2]; test subject 6, day 5, after irradiation",±
same,"skin reaction on UVA irradiation, treated skin","[2]; test subject 6, day 5, before irradiation",±
same,avobenzone formed by conversion,"[3]; 2% solution in Cosmacol ELI (C12-13 alkyl lactate), UVA/UVB light (20/1), dose 5 MED (250 kJ/m^2)",0.1%
same,avobenzone formed by conversion,"[3]; conditions of the in vivo experiment, UVA dose 20 J/cm^2 (200 kJ/m^2)",less than 0.1%
same,proportion of UVA filter formed by decomposition on exposure to UV light,[3]; under the selected conditions of the study,0.1 % by weight
same,absorption in the UVA region,"UV absorption spectrum; UVA, 320-400 nm",does not absorb in the UVA region
same,absorption,UV absorption spectrum; wavelength 215.5 nm,0.22
same,absorption,UV absorption spectrum; wavelength 273 nm,0.22
